Data as given in PubChem BioAssay (NCI).
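Compound exposure: 48 hours, 5 concentrations, 96-well plates. GI50: concentration for 50% inhibition of growth. Definition used: TGI = concentration required for complete inhibition of growth.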

How the values were obtained:
Assay in all cases: NCI-60 cell line screen, 48 h
[1] = tested on: A549 NSCLC
[2] = tested on: PC-3 prostate
[3] = tested on: HL-60(TB) leukemia
[4] = tested on: ACHN renal
[5] = tested on: LOX IMVI melanoma
[6] = tested on: HCT-15 colon
[7] = tested on: HOP-62 NSCLC
[8] = tested on: T-47D breast
[9] = tested on: CAKI-1 renal
[10] = tested on: OVCAR-3 ovarian
[11] = tested on: SF-539 CNS
[12] = tested on: EKVX NSCLC
[13] = tested on: RPMI-8226 leukemia
[14] = tested on: NCI-H23 lung
[15] = tested on: NCI-H522 lung
[16] = tested on: SK-OV-3 ovarian
[17] = tested on: SR leukemia
[18] = tested on: SNB-19 CNS
[19] = tested on: KM12 colon
[20] = tested on: IGROV1 ovarian
[21] = tested on: UACC-62 melanoma
[22] = tested on: MDA-MB-231 breast
[23] = tested on: HCC-2998 colon
[24] = tested on: CCRF-CEM leukemia
[25] = tested on: SNB-75 CNS
[26] = tested on: COLO 205 colon
[27] = tested on: SK-MEL-5 melanoma
[28] = tested on: NCI-H460 lung
[29] = tested on: OVCAR-4 ovarian
[30] = tested on: A498 renal
[31] = tested on: UACC-257 melanoma
[32] = tested on: U251 CNS
[33] = tested on: SW-620 colon
[34] = tested on: SK-MEL-2 melanoma
[35] = tested on: HT29 colon
[36] = tested on: MALME-3M melanoma
[37] = tested on: M14 melanoma
[38] = tested on: RXF 393 renal
[39] = tested on: SF-295 CNS
[40] = tested on: HOP-92 NSCLC
[41] = tested on: BT-549 breast
[42] = tested on: TK-10 renal
[43] = tested on: HS 578T breast
[44] = tested on: OVCAR-5 ovarian
[45] = tested on: UO-31 renal
[46] = tested on: HCT-116 colon
[47] = tested on: 786-0 renal
[48] = tested on: SF-268 CNS
[49] = tested on: MCF7 breast
[50] = tested on: MDA-MB-435
[51] = tested on: MOLT-4 leukemia
[52] = tested on: OVCAR-8 ovarian
[53] = tested on: DU-145 prostate
[54] = tested on: SN12C renal
[55] = tested on: NCI-H226 lung
[56] = tested on: NCI/ADR-RES ovarian

COc1ccc(NC(=O)c2sc3nc(C)c(C(=O)/C=C/c4ccccc4)cc3c2N)cc1
GI50 [1]: 749 nM
TGI [1]: 2130 nM
GI50 [2]: 1250 nM
TGI [2]: 3890 nM
GI50 [3]: 971 nM
TGI [3]: 2500 nM
GI50 [4]: 888 nM
TGI [4]: 1740 nM
GI50 [5]: 863 nM
TGI [5]: 1610 nM
GI50 [6]: 892 nM
TGI [6]: 2070 nM
GI50 [7]: 1260 nM
TGI [7]: 3160 nM
GI50 [8]: 1250 nM
TGI [8]: 4370 nM
GI50 [9]: 953 nM
TGI [9]: 1820 nM
GI50 [10]: 1090 nM
TGI [10]: 2730 nM
GI50 [11]: 951 nM
TGI [11]: 1840 nM
GI50 [12]: 1620 nM
TGI [12]: 8850 nM
GI50 [13]: 860 nM
TGI [13]: 2740 nM
GI50 [14]: 1570 nM
TGI [14]: 6090 nM
GI50 [15]: 943 nM
TGI [15]: 2420 nM
GI50 [16]: 3330 nM
TGI [16]: 12700 nM
GI50 [17]: 1070 nM
TGI [17]: 4000 nM
GI50 [18]: 1300 nM
TGI [18]: 4020 nM
GI50 [19]: 897 nM
TGI [19]: 1870 nM
GI50 [20]: 859 nM
TGI [20]: 2090 nM
GI50 [21]: 934 nM
TGI [21]: 1960 nM
GI50 [22]: 1760 nM
TGI [22]: 12600 nM
GI50 [23]: 901 nM
TGI [23]: 1760 nM
GI50 [24]: 1260 nM
TGI [24]: 9940 nM
GI50 [25]: 1220 nM
TGI [25]: 3530 nM
GI50 [26]: 1430 nM
TGI [26]: 5180 nM
GI50 [27]: 2030 nM
TGI [27]: 7220 nM
GI50 [28]: 931 nM
TGI [28]: 2080 nM
GI50 [29]: 4430 nM
TGI [29]: > 50000 nM
GI50 [30]: 890 nM
TGI [30]: 3220 nM
GI50 [31]: 1190 nM
TGI [31]: 3560 nM
GI50 [32]: 889 nM
TGI [32]: 1680 nM
GI50 [33]: 966 nM
TGI [33]: 2240 nM
GI50 [34]: 3780 nM
TGI [34]: 17500 nM
GI50 [35]: 883 nM
TGI [35]: 1940 nM
GI50 [36]: 1930 nM
TGI [36]: 21600 nM
GI50 [37]: 1750 nM
TGI [37]: 10300 nM
GI50 [38]: 820 nM
TGI [38]: 1620 nM
GI50 [39]: 1870 nM
TGI [39]: 9200 nM
GI50 [40]: 1390 nM
TGI [40]: 6650 nM
GI50 [41]: 938 nM
TGI [41]: 2230 nM
GI50 [42]: 1350 nM
TGI [42]: 3590 nM
GI50 [43]: 2050 nM
TGI [43]: > 50000 nM
GI50 [44]: 1110 nM
TGI [44]: 3260 nM
GI50 [45]: 748 nM
TGI [45]: 1440 nM
GI50 [46]: 849 nM
TGI [46]: 1780 nM
GI50 [47]: 821 nM
TGI [47]: 1670 nM
GI50 [48]: 1570 nM
TGI [48]: 5930 nM
GI50 [49]: 815 nM
TGI [49]: 6000 nM
GI50 [50]: 1040 nM
TGI [50]: 2960 nM
GI50 [51]: 1430 nM
TGI [51]: > 50000 nM
GI50 [52]: 1420 nM
TGI [52]: 5220 nM
GI50 [53]: 1300 nM
TGI [53]: 3720 nM
GI50 [54]: 1100 nM
TGI [54]: 2850 nM
GI50 [55]: 1110 nM
TGI [55]: 2870 nM

Cc1cc(C)c(S(=O)(=O)N2CCN(c3cc4c(cc3F)c(=O)c(C(=O)O)cn4C3CC3)CC2)c(C)c1
GI50 [1]: 2230 nM
TGI [1]: > 100000 nM
GI50 [4]: 2460 nM
TGI [4]: > 100000 nM
GI50 [6]: 2550 nM
TGI [6]: > 100000 nM
GI50 [7]: 3650 nM
TGI [7]: > 100000 nM
GI50 [8]: 4810 nM
TGI [8]: > 100000 nM
GI50 [56]: 3290 nM
TGI [56]: > 100000 nM
GI50 [11]: 3140 nM
TGI [11]: > 100000 nM
GI50 [13]: 2340 nM
TGI [13]: 6830 nM
GI50 [14]: 3410 nM
TGI [14]: > 100000 nM
GI50 [15]: 2800 nM
TGI [15]: > 100000 nM
GI50 [16]: 3020 nM
TGI [16]: > 100000 nM
GI50 [18]: 2560 nM
TGI [18]: > 100000 nM
GI50 [19]: 3380 nM
TGI [19]: > 100000 nM
GI50 [21]: 2430 nM
TGI [21]: > 100000 nM
GI50 [23]: 5370 nM
TGI [23]: > 100000 nM
GI50 [24]: 2800 nM
TGI [24]: > 100000 nM
GI50 [27]: 3030 nM
TGI [27]: > 100000 nM
GI50 [28]: 3040 nM
TGI [28]: > 100000 nM
GI50 [29]: 2370 nM
TGI [29]: > 100000 nM
GI50 [30]: 2370 nM
TGI [30]: > 100000 nM
GI50 [31]: > 100000 nM
TGI [31]: > 100000 nM
GI50 [32]: 2890 nM
TGI [32]: > 100000 nM
GI50 [33]: 3400 nM
TGI [33]: > 100000 nM
GI50 [37]: 4690 nM
TGI [37]: > 100000 nM
GI50 [41]: 3340 nM
TGI [41]: > 100000 nM
GI50 [42]: 4570 nM
TGI [42]: > 100000 nM
GI50 [43]: 2400 nM
TGI [43]: 7580 nM
GI50 [46]: 2980 nM
TGI [46]: > 100000 nM
GI50 [47]: 4080 nM
TGI [47]: > 100000 nM
GI50 [48]: 3960 nM
TGI [48]: > 100000 nM
GI50 [49]: 2590 nM
TGI [49]: > 100000 nM
GI50 [52]: 2870 nM
TGI [52]: > 100000 nM
GI50 [53]: 3400 nM
TGI [53]: > 100000 nM
GI50 [54]: 2610 nM
TGI [54]: > 100000 nM
